Earlier results as cited in patent publication US20080299102A1, “Novel BACE proteins, nucleic acid molecules therefor, novel crystal structure of novel BACE proteins, and methods for making and using” (priority 2001, published 2008).
Where a SMILES comes first, the peptide text is derived from it. [ ]: non-standard residue; d: D form. The star is where a group is joined. Sta = CC(C)C[C@H](N)[C@@H](O)CC(=O)O; Isovaleryl = CC(C)CC(=O)*

Target: BACE (Homo sapiens, UniProt P56817)
Settings: general statement in the description, no test data given

Sequence of BACE (P56817 46-501): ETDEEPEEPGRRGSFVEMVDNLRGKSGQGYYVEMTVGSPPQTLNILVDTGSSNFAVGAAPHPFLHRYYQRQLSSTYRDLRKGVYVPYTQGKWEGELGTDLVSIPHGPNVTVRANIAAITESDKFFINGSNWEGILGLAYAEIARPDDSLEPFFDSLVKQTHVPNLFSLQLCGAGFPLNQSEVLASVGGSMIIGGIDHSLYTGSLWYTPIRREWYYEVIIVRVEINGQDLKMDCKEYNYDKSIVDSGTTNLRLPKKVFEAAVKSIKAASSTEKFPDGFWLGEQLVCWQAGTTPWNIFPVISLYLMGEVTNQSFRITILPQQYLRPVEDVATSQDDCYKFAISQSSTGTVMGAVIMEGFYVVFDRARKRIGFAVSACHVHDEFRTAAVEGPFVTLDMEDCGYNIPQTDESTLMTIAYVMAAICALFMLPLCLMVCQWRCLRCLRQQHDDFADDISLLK

inhibition of BACE: not inhibited
SMILES: CC(C)CC(=O)N[C@H](C(=O)N[C@H](C(=O)N[C@@H](CC(C)C)[C@@H](O)CC(=O)N[C@@H](C)C(=O)N[C@@H](CC(C)C)[C@@H](O)CC(=O)O)C(C)C)C(C)C [pepstatin] (Isovaleryl-VV[Sta]A[Sta]-OH)
